Patent US11766429B1, “Nicotinic receptor antagonists and pioglitazone as therapeutic agents for Covid-19” (priority 2020, dated 2023)

Assays:
[1] = system: human α3β4, α4β2, α3β2 and α7 receptors; conditions: cited from earlier work; for mode of inhibition: neuronal nAChRs; for selectivity between nAChR types: neuronal vs muscle-type nAChRs
[2] = system: mouse hepatitis virus strain 4 (MHV4); assay: MHV4 replication in infected IMG cells (GFP expression, N gene qPCR); assay type: cell-based; conditions: 2 MOI MHV4, mecamylamine 1, 10 or 40 μM, 48 hours
[3] = system: inflammatory cytokine gene expression (IL1-β, IL-6, TNF-α); assay: Inflammatory cytokine gene expression in MHV4 infected IMG cells; assay type: cell-based; conditions: 2 MOI MHV4, mecamylamine 1, 10 or 40 μM, 48 hours
[4] = system: inflammatory cytokines IL-6, IL-1β, and TNFα; assay: SARS-CoV-2 induced cytokine gene expression in Calu3 cells; assay type: cell-based; conditions: 0.1 MOI SARS CoV2, single agent: PG 20 μM, Mec 5 μM or Mec iso 5 μM, 48 hrs
[5] = higher doses (30-90 mg/day); cited from earlier work
[6] = in vivo; cited from earlier work

| Compound | mode of inhibition [1] | selectivity between nAChR types [1] | GFP expressing cells [2] | MHV-4 N-gene expression [2] | cytokine gene transcription (qPCR) [3] | inflammatory cytokines IL-6, IL-1β, and TNFα [4] | side effects [5] | blood brain barrier penetration [6] |
| --- | --- | --- | --- | --- | --- | --- | --- | --- |
| CNC1(C)C2CCC(C2)C1(C)C (stereo not drawn) [R-(−)-mecamylamine] | noncompetitive inhibitors | selective for neuronal nAChRs over muscle-type nAChRs |  |  |  |  |  |  |
| CN[C@@]1(C)[C@@H]2CC[C@@H](C2)C1(C)C [S-(+)-mecamylamine] | noncompetitive inhibitors | selective for neuronal nAChRs over muscle-type nAChRs |  |  |  |  |  |  |
| CNC1(C)C2CCC(C2)C1(C)C (racemic) [mecamylamine] |  | selective for neuronal nAChRs over muscle-type nAChRs | dose-dependent decrease | dose-dependent decrease | dose-dependent decrease | significant decrease | causes unfavorable side effects | ability to cross the blood brain barrier |
